PubChem BioAssay (NCI)
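Test compounds were applied to cells in 96-well plates for 48 hours at 5 doses. At the GI50, growth is halved. The concentration for full growth arrest is given as TGI.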

Assays:
Assay in all cases: NCI tumour cell line growth inhibition, 48 h
HL-60(TB) leukemia = tested on: HL-60(TB) leukemia
A498 renal = tested on: A498 renal
SNB-75 CNS = tested on: SNB-75 CNS
SK-OV-3 ovarian = tested on: SK-OV-3 ovarian
NCI/ADR-RES ovarian = tested on: NCI/ADR-RES ovarian
SF-295 CNS = tested on: SF-295 CNS
UACC-257 melanoma = tested on: UACC-257 melanoma
IGROV1 ovarian = tested on: IGROV1 ovarian
RXF 393 renal = tested on: RXF 393 renal
NCI-H23 lung = tested on: NCI-H23 lung

SMILES | TGI (HL-60(TB) leukemia) [µM] | TGI (A498 renal) [µM] | TGI (SNB-75 CNS) [µM] | TGI (SK-OV-3 ovarian) [µM] | TGI (NCI/ADR-RES ovarian) [µM] | TGI (SF-295 CNS) [µM] | TGI (UACC-257 melanoma) [µM] | TGI (IGROV1 ovarian) [µM] | TGI (RXF 393 renal) [µM] | TGI (NCI-H23 lung) [µM] | GI50 (HL-60(TB) leukemia) [µM] | GI50 (A498 renal) [µM] | GI50 (SNB-75 CNS) [µM] | GI50 (SK-OV-3 ovarian) [µM] | GI50 (NCI/ADR-RES ovarian) [µM] | GI50 (SF-295 CNS) [µM] | GI50 (UACC-257 melanoma) [µM] | GI50 (IGROV1 ovarian) [µM] | GI50 (RXF 393 renal) [µM] | GI50 (NCI-H23 lung) [µM]
CC/C(Cl)=N\OC(=O)Nc1ccc(F)cc1F | 4.31 | 74.8 | 47.1 | 37.4 | 44.5 | > 60 | 34.2 | 31.9 | 27.7 | 46.5 | – | – | – | – | – | – | – | – | – | –
O=CNNC(=O)Nc1ccc(Cl)cc1 | > 100 | 97.6 | > 100 | > 100 | > 100 | > 100 | > 100 | > 100 | > 100 | > 100 | – | – | – | – | – | – | – | – | – | –
Cc1c2cccc-2ccc2c1[nH]c1ccccc12 | 9.38 | 28.5 | 4.33 | 11 | > 27.3 | 5.62 | 3.12 | 5.77 | 9.42 | 8.99 | – | – | – | – | – | – | – | – | – | –
O=C1OI(C#Cc2ccccc2)c2ccccc21 | 7.82 | 16.4 | 10.3 | 26.1 | > 100 | 28.4 | 25.2 | 6.17 | 97.5 | 10.8 | – | – | – | – | – | – | – | – | – | –
O=S1(=O)CCN(c2ccccc2CC(c2c[nH]c3ccccc23)c2c[nH]c3ccccc23)CC1 | 12.7 | 39.9 | 23.6 | > 79 | 38.7 | 49.9 | 18 | 33.4 | 28.8 | 22.6 | – | – | – | – | – | – | – | – | – | –
CC1=C2NCN(C)N=C2C(C#N)(C#N)C1(C#N)C#N | 4.84 | > 100 | > 87.9 | > 100 | > 68.5 | > 100 | 33.9 | > 63 | 42.7 | 21.4 | – | – | – | – | – | – | – | – | – | –
O=P(O)(O)CN1CCNCCN(CP(=O)(O)O)CCNCC1 | 15.2 | > 100 | > 100 | > 100 | > 100 | > 100 | > 100 | > 51.2 | > 100 | > 100 | – | – | – | – | – | – | – | – | – | –
CC1(C)CCC2(C(=O)OC3OC(CO)C(O)C(O)C3O)CCC3(CO)C(=CCC4C5(C)CC(O)C(O)C(C)(C(=O)OC6OC(CO)C(O)C(O)C6O)C5CCC43C)C2C1 (stereo not given) | > 100 | > 100 | > 100 | > 100 | > 100 | > 100 | > 100 | > 100 | > 100 | > 100 | – | – | – | – | – | – | – | – | – | –
CCCCCCOc1ccc(C(=N)N(CCCC)CCCC)c2ccccc12 | 3.43 | 2.45 | 2.46 | 2.96 | 2.79 | 3.17 | 3.06 | 2.86 | 2.74 | 2.8 | 1.81 | 1.19 | 1.19 | 1.57 | 1.43 | 1.6 | 1.6 | 1.34 | 1.28 | 1.45
COC(=O)c1ccc(/C=C2\CCc3ccccc3C2=O)cc1 | > 100 | > 100 | > 100 | > 100 | > 100 | > 100 | > 100 | > 100 | > 100 | > 100 | – | – | – | – | – | – | – | – | – | –
CCOC(=O)/C(C#N)=C/N(CC)/N=C/c1ccccc1 | > 100 | > 100 | > 100 | > 100 | > 100 | > 100 | > 100 | > 100 | > 100 | > 100 | – | – | – | – | – | – | – | – | – | –
O=[N+]([O-])c1ccc(NS(=O)(=O)C(F)(F)F)cc1 | > 100 | > 100 | > 100 | > 100 | > 100 | > 100 | > 100 | > 100 | > 100 | > 100 | – | – | – | – | – | – | – | – | – | –
O=C(/C=C/c1ccco1)c1cccc(C(=O)/C=C/c2ccco2)n1 | 0.417 | > 100 | > 100 | > 100 | > 73.3 | > 100 | > 100 | 53.5 | > 65.1 | 31.8 | – | – | – | – | – | – | – | – | – | –
